# What was measured:
# Assay type in all cases: functional
# ACHN = assay: Antiproliferative activity against human ACHN cells by sulforhodamine B assay relative to control
# HCT-15 = assay: Antiproliferative activity against human HCT15 cells by sulforhodamine B assay relative to control
# SF-539 = assay: Antiproliferative activity against human SF539 cells by sulforhodamine B assay relative to control
# NCI-H23 = assay: Antiproliferative activity against human NCI-H23 cells by sulforhodamine B assay relative to control
# SNB-78 = assay: Antiproliferative activity against human SNB78 cells by sulforhodamine B assay relative to control
# LOX IMVI = assay: Antiproliferative activity against human LOX IMVI cells by sulforhodamine B assay relative to control
# St-4 = assay: Antiproliferative activity against human St4 cells by sulforhodamine B assay relative to control
# MKN-28 = assay: Antiproliferative activity against human MKN28 cells by sulforhodamine B assay relative to control
# SF-295 = assay: Antiproliferative activity against human SF295 cells by sulforhodamine B assay relative to control
# MKN-45 = assay: Antiproliferative activity against human MKN45 cells by sulforhodamine B assay relative to control
# [1] = Antiproliferative activity against human OVACR5 cells by sulforhodamine B assay relative to control
# DMS-114 = assay: Antiproliferative activity against human DMS114 cells by sulforhodamine B assay relative to control
# MKN-7 = assay: Antiproliferative activity against human MKN7 cells by sulforhodamine B assay relative to control
# SNB-75 = assay: Antiproliferative activity against human SNB75 cells by sulforhodamine B assay relative to control
# KM12 = assay: Antiproliferative activity against human KM12 cells by sulforhodamine B assay relative to control
# [2] = Antiproliferative activity against human OVACR8 cells by sulforhodamine B assay relative to control
# A549 = assay: Antiproliferative activity against human A549 cells by sulforhodamine B assay relative to control
# [3] = Antiproliferative activity against human MKN1 cells by sulforhodamine B assay relative to control; settings: MKN-1
# [4] = Antiproliferative activity against human OVACR3 cells by sulforhodamine B assay relative to control
# [5] = Antiproliferative activity against human HBC4 cells by sulforhodamine B assay relative to control
# U-251 = assay: Antiproliferative activity against human U251 cells by sulforhodamine B assay relative to control
# MKN-74 = assay: Antiproliferative activity against human MKN74 cells by sulforhodamine B assay relative to control
# DU-145 = assay: Antiproliferative activity against human DU145 cells by sulforhodamine B assay relative to control
# HCC 2998 = assay: Antiproliferative activity against human HCC2998 cells by sulforhodamine B assay relative to control
# MDA-MB-231 = assay: Antiproliferative activity against human MDA-MB-231 cells by sulforhodamine B assay relative to control
# [6] = Antiproliferative activity against human RXF631L cells by sulforhodamine B assay relative to control; settings: RXF 631
# HCT-116 = assay: Antiproliferative activity against human HCT116 cells by sulforhodamine B assay relative to control
# NCI-H522 = assay: Antiproliferative activity against human NCI-H522 cells by sulforhodamine B assay relative to control
# DMS-273 = assay: Antiproliferative activity against human DMS273 cells by sulforhodamine B assay relative to control
# [7] = Antiproliferative activity against human OVACR4 cells by sulforhodamine B assay relative to control
# NCI-H460 = assay: Antiproliferative activity against human NCI-H460 cells by sulforhodamine B assay relative to control
# MCF7 = assay: Antiproliferative activity against human MCF7 cells by sulforhodamine B assay relative to control
# [8] = Antiproliferative activity against human BSY1 cells by sulforhodamine B assay relative to control; settings: BSY-1
# PC-3 = assay: Antiproliferative activity against human PC3 cells by sulforhodamine B assay relative to control
# SF-268 = assay: Antiproliferative activity against human SF268 cell by sulforhodamine B assay relative to control
# [9] = Antiproliferative activity against human HBC5 cells by sulforhodamine B assay relative to control
# NCI-H226 = assay: Antiproliferative activity against human NCI-H226 cells by sulforhodamine B assay relative to control
# SK-OV-3 = assay: Antiproliferative activity against human SKOV3 cells by sulforhodamine B assay relative to control
# HT-29 = assay: Antiproliferative activity against human HT29 cells by sulforhodamine B assay relative to control
Structure (SMILES),GI50 (ACHN) [µM],GI50 (HCT-15) [µM],GI50 (SF-539) [µM],GI50 (NCI-H23) [µM],GI50 (SNB-78) [µM],GI50 (LOX IMVI) [µM],GI50 (St-4) [µM],GI50 (MKN-28) [µM],GI50 (SF-295) [µM],GI50 (MKN-45) [µM],GI50 [1] [µM],GI50 (DMS-114) [µM],GI50 (MKN-7) [µM],GI50 (SNB-75) [µM],GI50 (KM12) [µM],GI50 [2] [µM],GI50 (A549) [µM],GI50 [3] [µM],GI50 [4] [µM],GI50 [5] [µM],further results
CCCCCCCCCCCC[C@@H](O)[C@H]1CC[C@H]([C@H](O)CCCCCCCCCCCCc2cncnc2)O1,40,47,28,11,52,16,39,13,25,50,> 100,4.1,6.1,28,36,29,42,32,29,56,GI50 (U-251): 61 µM; GI50 (MKN-74): 38 µM; GI50 (DU-145): 90 µM; GI50 (HCC 2998): 28 µM; GI50 (MDA-MB-231): > 100 µM; GI50 [6]: > 43 µM; GI50 (HCT-116): 28 µM; GI50 (NCI-H522): 13 µM; GI50 (DMS-273): 28 µM; GI50 [7]: 22 µM; GI50 (NCI-H460): 40 µM; GI50 (MCF7): 34 µM; GI50 [8]: 34 µM; GI50 (PC-3): 35 µM; GI50 (SF-268): 49 µM; GI50 [9]: 17 µM; GI50 (NCI-H226): 22 µM; GI50 (SK-OV-3): 33 µM; GI50 (HT-29): 33 µM
CCCCCCCCCCCC[C@@H](O)[C@H]1CC[C@H]([C@H](O)CCCCCCCCCCCCc2ccnn2C)O1,88,> 100,37,0.91,> 100,> 100,65,4.4,24,> 100,> 100,0.55,6.2,> 100,71,> 100,31,> 100,> 100,> 100,GI50 (U-251): > 100 µM; GI50 (MKN-74): 23 µM; GI50 (DU-145): > 100 µM; GI50 (HCC 2998): 80 µM; GI50 (MDA-MB-231): 32 µM; GI50 [6]: > 100 µM; GI50 (HCT-116): 9.2 µM; GI50 (NCI-H522): 3.8 µM; GI50 (DMS-273): 49 µM; GI50 [7]: 37 µM; GI50 (NCI-H460): > 100 µM; GI50 (MCF7): 27 µM; GI50 [8]: 32 µM; GI50 (PC-3): > 100 µM; GI50 (SF-268): > 100 µM; GI50 [9]: 69 µM; GI50 (NCI-H226): 52 µM; GI50 (SK-OV-3): 77 µM; GI50 (HT-29): 76 µM
CCCCCCCCCCCC[C@@H](O)[C@H]1CC[C@H]([C@H](O)CCCCCCCCCCCCc2cnc(N)nc2)O1,> 100,> 100,62,36,> 100,58,> 100,40,56,> 100,> 100,4.8,9.4,27,> 100,90,> 100,> 100,> 100,> 100,GI50 (U-251): > 100 µM; GI50 (MKN-74): > 100 µM; GI50 (DU-145): > 100 µM; GI50 (HCC 2998): 89 µM; GI50 (MDA-MB-231): > 100 µM; GI50 [6]: > 100 µM; GI50 (HCT-116): > 100 µM; GI50 (NCI-H522): 22 µM; GI50 (DMS-273): > 100 µM; GI50 [7]: > 100 µM; GI50 (NCI-H460): > 100 µM; GI50 (MCF7): > 100 µM; GI50 [8]: > 100 µM; GI50 (PC-3): > 100 µM; GI50 (SF-268): > 100 µM; GI50 [9]: > 100 µM; GI50 (NCI-H226): 44 µM; GI50 (SK-OV-3): 56 µM; GI50 (HT-29): 90 µM
CCCCCCCCCCCC[C@@H](O)[C@H]1CC[C@H]([C@H](O)CCCCCCCCCCCCC2=C[C@H](C)OC2=O)O1 [REL-SOLAMIN],> 100,> 100,> 100,73,> 100,29,> 100,14,40,> 100,> 100,4.3,13,> 100,> 100,> 100,> 100,> 100,> 100,> 100,GI50 (U-251): > 100 µM; GI50 (MKN-74): > 100 µM; GI50 (DU-145): > 100 µM; GI50 (HCC 2998): > 100 µM; GI50 (MDA-MB-231): > 100 µM; GI50 [6]: > 100 µM; GI50 (HCT-116): > 100 µM; GI50 (NCI-H522): 58 µM; GI50 (DMS-273): > 100 µM; GI50 [7]: > 100 µM; GI50 (NCI-H460): > 100 µM; GI50 (MCF7): 71 µM; GI50 [8]: > 100 µM; GI50 (PC-3): > 100 µM; GI50 (SF-268): > 100 µM; GI50 [9]: > 100 µM; GI50 (NCI-H226): > 100 µM; GI50 (SK-OV-3): > 100 µM; GI50 (HT-29): > 100 µM
CCCCCCCCCCCC[C@@H](O)[C@H]1CC[C@H]([C@H](O)CCCCCCCCCCCCc2ncccn2)O1,> 100,> 100,41,28,> 100,12,> 100,48,> 100,> 100,> 100,16,27,32,> 100,> 100,> 100,> 100,> 100,> 100,GI50 (U-251): > 100 µM; GI50 (MKN-74): 69 µM; GI50 (DU-145): > 100 µM; GI50 (HCC 2998): > 100 µM; GI50 (MDA-MB-231): > 100 µM; GI50 [6]: > 100 µM; GI50 (HCT-116): > 100 µM; GI50 (NCI-H522): 17 µM; GI50 (DMS-273): 92 µM; GI50 [7]: 38 µM; GI50 (NCI-H460): > 100 µM; GI50 (MCF7): 79 µM; GI50 [8]: > 100 µM; GI50 (PC-3): > 68 µM; GI50 (SF-268): > 100 µM; GI50 [9]: 50 µM; GI50 (NCI-H226): 30 µM; GI50 (SK-OV-3): 74 µM; GI50 (HT-29): > 100 µM
CCCCCCCCCCCC[C@@H](O)[C@H]1CC[C@H]([C@H](O)CCCCCCCCCCCCc2cnn(C)c2)O1,> 100,> 100,37,13,81,9.5,> 100,19,24,> 100,> 100,2.1,5.4,23,> 100,> 100,> 100,> 100,> 100,> 100,GI50 (U-251): > 100 µM; GI50 (MKN-74): > 100 µM; GI50 (DU-145): > 100 µM; GI50 (HCC 2998): > 100 µM; GI50 (MDA-MB-231): > 100 µM; GI50 [6]: > 100 µM; GI50 (HCT-116): 70 µM; GI50 (NCI-H522): 12 µM; GI50 (DMS-273): > 100 µM; GI50 [7]: > 100 µM; GI50 (NCI-H460): > 100 µM; GI50 (MCF7): > 100 µM; GI50 [8]: > 100 µM; GI50 (PC-3): > 100 µM; GI50 (SF-268): > 100 µM; GI50 [9]: > 100 µM; GI50 (NCI-H226): 56 µM; GI50 (SK-OV-3): > 100 µM; GI50 (HT-29): > 100 µM
